Test results as given in patent publication US8697694B2, “Substituted pyridine and pyrimidine derivatives and their use in treating viral infections” (priority 2008, dated 2014).

What follows are compounds tested on HCV replicon cells (assay: Cell-based HCV replicon assay (replicon RNA level by real time PCR, Taqman)). Conditions: Hepatitis C virus, 72 h, HCV replicon cells, harvested day 3, replicon RNA by real time PCR; given as number; read-out: EC90 (μM) range.
In short: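 Readout: ΔCT between NS5B replicon RNA and GAPDH by real-time RT-PCR in lysates harvested on day 3, fitted sigmoidally; EC50 at ΔCT=1, EC90 at ΔCT=3.2. Compounds tested at ten 2-fold dilutions from 25 μM to 1 μM start, 10% FBS, 0.5% DMSO.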
CCOc1cc2cc(-c3c(C)nc(NCC(C)(C)C)nc3N[C@@H]3C[C@H](CO)[C@@H](O)[C@H]3O)oc2c(C)n1 [Example 27] was tested, and the EC90 was 0.35 µM. With COCCNc1nc(C)c(-c2cc3cc(OC)ncc3o2)c(N[C@@H]2C[C@H](CO)[C@@H](O)[C@H]2O)n1 [Example 25] the EC90 was 0.8 µM.

Same assay, conditions: Hepatitis C virus, 72 h, HCV replicon cells, harvested day 3, replicon RNA by real time PCR; reported as range class; read-out: EC90 (μM) range
OC[C@H]1C[C@@H](Nc2nc(NCCC(F)(F)F)nc(Cl)c2-c2nc3ccccc3s2)[C@H](O)[C@@H]1O [Example 217] showed an EC90 of under 0.5 µM. Compound COCCNc1nc(Cl)c(-c2nc3ccccc3s2)c(N[C@@H]2C[C@H](CO)[C@@H](O)[C@H]2O)n1 [Example 201] has an EC90 of under 0.5 µM. In the case of CCCOc1cc2cc(-c3c(C)nc(NCCOC)nc3N[C@@H]3C[C@H](CO)[C@@H](O)[C@H]3O)oc2cn1 [Example 60], the EC90 is reported as over 5 µM. In the case of Cc1ccc2nc(-c3c(Cl)nc(N)nc3N[C@@H]3C[C@H](CO)[C@H]4OC(C)(C)O[C@H]43)oc2c1 [Example 190], the EC90 is reported as over 5 µM. In the case of Nc1nc(Cl)c(-c2nc3cc(C(F)(F)F)ccc3s2)c(N[C@@H]2C[C@H](CO)[C@@H](O)[C@H]2O)n1 [Example 112], the EC90 is reported as 0.5 to 5 µM. Nc1nc(Cl)c(-c2ccco2)c(N[C@@H]2C[C@H](CO)[C@@H](O)[C@H]2O)n1 [Example 152] showed an EC90 of over 5 µM. With CC(=O)c1ccc(-c2c(Cl)nc(N)nc2N[C@@H]2C[C@H](CO)[C@@H](O)[C@H]2O)s1 [Example 154] the EC90 was over 5 µM. With Nc1nc(Cl)c(-c2ccc3c(c2)OCO3)c(N[C@@H]2C[C@H](CO)[C@@H](O)[C@H]2O)n1 [Example 151] the EC90 was over 5 µM. Work on CC1(C)O[C@@H]2[C@@H](CO)C[C@@H](Nc3nc(N)nc(Cl)c3-c3nc4ccc(OCc5ccccc5)cc4s3)[C@@H]2O1 [Example 198] yielded an EC90 of over 5 µM. CCNc1nc(Cl)c(-c2nc3ccccc3s2)c(N[C@@H]2C[C@H](CO)[C@@H](O)[C@H]2O)n1 [Example 412] showed an EC90 of under 0.5 µM.

Same assay, conditions: Hepatitis C virus, 72 h, HCV replicon cells, harvested on day 3, replicon RNA by real time PCR; calculated EC90 reported as range class; read-out: EC90 (μM) range
Cc1cc2cc(-c3c(Cl)nc(NCC4CCCCC4)nc3N[C@@H]3C[C@H](CO)[C@@H](O)[C@H]3O)oc2c(C)n1 [Example 460] showed an EC90 of under 0.5 µM. CC(C)Nc1nc(Cl)c(-c2nc3ccccc3s2)c(N[C@@H]2C[C@H](CO)[C@@H](O)[C@H]2O)n1 [Example 426] showed an EC90 of under 0.5 µM. With Cc1nc(NCc2cccs2)nc(N[C@@H]2C[C@H](C)[C@H]3OC4(CCCCC4)O[C@H]32)c1-c1nc2ccccc2s1 [Example 335] the EC90 was over 5 µM. Cc1nc(NCc2cccc[n+]2[O-])nc(N[C@@H]2C[C@H](CO)[C@H]3OC(C)(C)O[C@H]32)c1-c1nc2ccccc2s1 [Example 481] gave an EC90 of over 5 µM. In the case of CCCCCNc1nc(C)c(-c2cc3cc(CCC)nc(C)c3o2)c(N[C@@H]2C[C@H](CO)[C@@H](O)[C@H]2O)n1 [Example 448], the EC90 is reported as under 0.5 µM. With Cc1nc(NCc2cccs2)nc(N[C@@H]2CCC[C@H]2O)c1-c1nc2ccccc2s1 (racemic) [Example 333] the EC90 was under 0.5 µM. Cc1nc(NCc2cccs2)nc(N[C@@H]2C[C@H](CO)[C@H]3OC(C)(C)O[C@H]32)c1-c1nc2ccccc2s1 [Example 328] showed an EC90 of under 0.5 µM. In the case of CCc1cc2cc(-c3c(Cl)nc(NCC(F)(F)F)nc3N[C@@H]3C[C@H](CO)[C@@H](O)[C@H]3O)oc2cn1 [Example 516], the EC90 is reported as under 0.5 µM. Cc1nc(NCc2ccncc2)nc(N[C@@H]2C[C@H](CO)[C@H]3OC(C)(C)O[C@H]32)c1-c1nc2ccccc2s1 [Example 464] showed an EC90 of under 0.5 µM. Compound Cc1cc(C)cc(CNc2nc(C)c(-c3nc4ccccc4s3)c(N[C@@H]3C[C@H](CO)[C@H]4OC(C)(C)O[C@H]43)n2)c1 [Example 712] has an EC90 of under 0.5 µM.

Same assay, conditions: Hepatitis C virus, 72 h, HCV replicon cells, replicon RNA level by real time PCR (Taqman), harvested on day 3; calculated EC90 reported as range class; read-out: EC90 (μM) range
Cc1ccc(CNc2nc(C)c(-c3nc4cnccc4s3)c(N[C@@H]3C[C@H](CO)[C@@H](O)[C@H]3O)n2)s1 [Example 539] showed an EC90 of under 0.5 µM. With Cc1nc(Nc2nccs2)nc(N[C@@H]2C[C@H](CO)[C@@H](O)[C@H]2O)c1-c1nc2ccccc2s1 [Example 1013] the EC90 was 0.5 to 5 µM. In the case of Cc1nc(NCc2nccs2)nc(N[C@@H]2C[C@H](CO)[C@@H](O)[C@H]2O)c1-c1nc2cnccc2s1 [Example 541], the EC90 is reported as under 0.5 µM. Cc1nc(NCC(C)(C)C)nc(N[C@@H]2C[C@H](CO)[C@@H](O)[C@H]2O)c1-c1nc2cnccc2s1 [Example 536] showed an EC90 of under 0.5 µM. [2H]C([2H])(Nc1nc(C)c(-c2nc3ccccc3s2)c(N[C@@H]2C[C@H](CO)[C@@H](O)[C@H]2O)n1)c1cc(OC)cc(OC)c1 [Example 1244] gave an EC90 of under 0.5 µM. Work on COCC(O)CNc1nc(C)c(-c2nc3ccccc3s2)c(N[C@@H]2C[C@H](CO)[C@@H](O)[C@H]2O)n1 (stereo partly shown) [Example 1062] yielded an EC90 of over 5 µM. For Cc1nc(NCC(C)(C)C)nc(N[C@@H]2C[C@H](CO)[C@@H](O)[C@H]2O)c1-c1nc2c(C)nccc2s1 [Example 1319], the EC90 was under 0.5 µM. CC(C)(C)CNc1nc(CF)c(-c2nc3ccccc3s2)c(N[C@@H]2C[C@H](CO)[C@@H](O)[C@H]2O)n1 [Example 1120] gave an EC90 of over 5 µM. Work on CCOCCNc1nc(C)c(-c2nc3c(C)nccc3s2)c(N[C@@H]2C[C@H](CO)[C@@H](O)[C@H]2O)n1 [Example 535] yielded an EC90 of under 0.5 µM. For COC(=O)c1cccc(CNc2nc(C)c(-c3nc4ccccc4s3)c(N[C@@H]3C[C@H](CO)[C@@H](O)[C@H]3O)n2)c1 [Example 1218], the EC90 was 0.5 to 5 µM. Cc1cc2sc(-c3c(C)nc(N[C@@H](C)c4ccc(OC(F)(F)F)cc4)nc3N[C@@H]3C[C@H](CO)[C@@H](O)[C@H]3O)nc2c(C)n1 [Example 1137] gave an EC90 of under 0.5 µM. COc1cccc(Nc2nc(C)c(-c3nc4ccccc4s3)c(N[C@@H]3C[C@H](CO)[C@H]4OC(C)(C)O[C@H]43)n2)c1OC [Example 1128] was tested, and the EC90 was over 5 µM. Cc1nc(Nc2ccccc2)nc(N[C@@H]2C[C@H](CO)[C@@H](O)[C@H]2O)c1-c1nc2ccccc2s1 [Example 1007] gave an EC90 of 0.5 to 5 µM. Cc1nc(NC(C)c2ccco2)nc(N[C@@H]2C[C@H](CO)[C@@H](O)[C@H]2O)c1-c1nc2ccccc2s1 (stereo partly shown) [Example 1102] showed an EC90 of 0.5 to 5 µM. Cc1nc(Nc2cccc(OCc3ccccc3)c2)nc(N[C@@H]2C[C@H](CO)[C@@H](O)[C@H]2O)c1-c1nc2ccccc2s1 [Example 1231] showed an EC90 of 0.5 to 5 µM. Compound Cc1nc(NCc2cccs2)nc(N[C@@H]2C[C@H](CN)[C@@H](O)[C@H]2O)c1-c1nc2ccccc2s1 [Example 1328] has an EC90 of under 0.5 µM. CCOCCCCNc1nc(C)c(-c2nc3ccccc3s2)c(N[C@@H]2C[C@H](CO)[C@@H](O)[C@H]2O)n1 [Example 1052] was tested, and the EC90 was under 0.5 µM.

Same assay, conditions: Hepatitis C virus, 72 h, HCV replicon cells, replicon RNA level by real time PCR, harvested day 3; read-out: EC90 (μM) range
For Cc1nc(NCC2CC2)nc(N[C@H]2[C@H](O)CC[C@@H]2O)c1-c1nc2ccccc2s1 [Example 1627], the EC90 was over 5 µM. Work on Cc1ccsc1CCNc1nc(C)c(-c2nc3ccccc3s2)c(N[C@@H]2C[C@H](CO)[C@@H](O)[C@H]2O)n1 [Example 1706] yielded an EC90 of 0.5 to 5 µM. With Cc1nc(N[C@H](C)c2ccc(OC(F)(F)F)cc2)nc(N[C@@H]2C[C@@H](C(C)O)[C@@H](O)[C@H]2O)c1-c1nc2cnccc2s1 (stereo partly shown) [Example 1652] the EC90 was under 0.5 µM. For Cc1nc(NCC(F)(F)F)nc(N[C@@H]2C[C@H](CN3CCOC3=O)[C@@H](O)[C@H]2O)c1-c1nc2ccccc2s1 [Example 1400], the EC90 was under 0.5 µM. Cc1nc(NCC(F)(F)F)nc(N[C@@H]2C[C@H](C)[C@@H](O)[C@H]2O)c1-c1nc2ccccc2s1 [Example 1630] showed an EC90 of under 0.5 µM. Compound Cc1nc(NCC(F)(F)F)nc(N[C@@H]2C[C@H](C(O)C(C)C)[C@@H](O)[C@H]2O)c1-c1nc2ccccc2s1 (stereo partly shown) [Example 1638] has an EC90 of 0.5 to 5 µM. Cc1ccc([C@@H](C)Nc2nc(C)c(-c3nc4cnccc4s3)c(N)n2)cc1 [Example 1511] gave an EC90 of under 0.5 µM.
